Assay results from patent US20220125959A1, “PROSTATE-SPECIFIC MEMBRANE ANTIGEN (PSMA) INHIBITORS AS DIAGNOSTIC AND RADIONUCLIDE THERAPEUTIC AGENTS” (FIVE ELEVEN PHARMA INC., priority 2019, published 2022).
Blank lines part the entries; values can stand above or below the compound they belong to.

Experiments:
[1] = tested on: PC3-PIP (PSMA positive) and PC-3 tumors (PSMA negative); assay: Biodistribution of [68Ga]4 in tumor bearing nude mice; type: in vivo, CD-1 male nude mice
Procedure: (§1) ^68Ga labeling: To 15 nmole ligand 4 (1 mg/mL DMSO) were added 20 μL of 2.0 N NaOAc, 500 μL ^68Ga-solution (2.25 mCi). The reaction was heated in a heating block at 90° C. for 10 minutes in a 3 mL closed vial. After cooling, the sample was analyzed by HPLC (HPLC: Eclise XDB C18 150×4.6 mm, gradient, 2 mL/min; A: 0.1% TFA in water; B: 0.1% TFA in ACN: 0-2 min 100% A; 2-4 min: from 0% to 100% B; 4-9 min: 100% B; 9-10 min: from 100% to 0% B). Radiochemical purity of [^68Ga]4 was >99% RCP (FIG. 1) and injected doses were stable at 2 hr after formulation.
For iv injection 150 μL of labeled solution was diluted with saline to 3 mL. Mice were injected with 150 μL of formulated dose. Injected radioactivity was 19-28 μCi and PSMA ligand amount was constant at 0.2 nmole/mouse.
Biodistribution of [^68Ga]4, [^177Lu]4 and [^177Lu]7 was determined in nude mice bearing PIP PC3 (PSMA positive) and PC3 (PSMA negative) tumors on the left and right shoulder, respectively, over a period of 192 h (Table 3a, 3b and 3c). […] The uptake in PC3 tumors (PSMA negative) of both ligands, [^177Lu]4 and [^177Lu]7, was clearly much lower than those of PC-3 PIP tumors (PSMA positive).

[2] = Stability of injected doses after formulation; type: physicochemical; details: at 2 hr after formulation
Procedure: as §1
^177Lu labeling: To 10 μg ligand (1 mg/mL DMSO) were added 15 μL of 2.0 N NaOAc, 400 μL 0.05 N HCl, and 20 μL ^177Lu-solution (780 μCi (Capintec setting 450 (reading×10)). The reaction was heated with a heating block at 95° C. for 1 hour in a 3 mL closed vial. After cooling, the sample was analyzed by HPLC (HPLC: Eclipse XDB-C18 150×4.6 mm, gradient, 1 mL/min; A: 0.1% TFA in water; B: 0.1% TFA in ACN: 0-4 min A/B 85/15%; 4-11 min: from 85/15 to 30/70%; 11-14 min: from 30/70% to 85/15%). Radiochemical purity of [^177Lu]4 (FIG. 2) and [^177Lu]7 was >98% and injected doses were stable at 48 hr after formulation.
For iv injection 150 μL of labeled solution was diluted with saline to 3.75mL. Mice were injected with 150 μL of formulated dose. Injected radioactivity was 100 μCi and PSMA ligand amount was constant at 0.72 nmole/mouse.

[3] = tested on: PSMA-positive cell line, PIP PC3; assay: In vitro cell uptake, PIP PC3 cells; type: cell-based
Procedure: To determine the cell uptakes of the [^177Lu] labelled ligands, 5×10^5 cells/well were grown in 12-well plates in 1 mL of medium for 48 h. The cells were washed twice with PBS, and 900 μL fresh media were added. […] All samples were prepared in triplicate. Following the incubation at 37° C., cells were washed twice to remove unbound activity and afterwards lysed in 1 mL of 0.5 M NaOH. Activity was measured in a gamma counter. Aliquots of the solution added to the cells were also measured for the calculation of the cellular uptake as % ID.

[4] = tested on: PSMA-negative cell line, PC3; assay: In vitro cell uptake, PC3 cells; type: cell-based; details: PC3 (do not express PSMA), 60 min
Procedure: To determine the cell uptakes of the [^177Lu] labelled ligands, 5×10^5 cells/well were grown in 12-well plates in 1 mL of medium for 48 h. The cells were washed twice with PBS, and 900 μL fresh media were added. Radiolabelled ligand was added and the PSMA-inhibitor (2-PMPA) was applied in a final concentration of 10 μM to determine unspecific binding. All samples were prepared in triplicate. Following the incubation at 37° C., cells were washed twice to remove unbound activity and afterwards lysed in 1 mL of 0.5 M NaOH. Activity was measured in a gamma counter. Aliquots of the solution added to the cells were also measured for the calculation of the cellular uptake as % ID.

Biodistribution: Blood ([1]; 30 min): 1.22 ± 0.06 % dose/g | Biodistribution: Bone ([1]; 30 min): 0.35 ± 0.01 % dose/g | Biodistribution: Brain ([1]; 30 min): 0.04 ± 0.01 % dose/g | Biodistribution: Heart ([1]; 30 min): 0.75 ± 0.12 % dose/g | Biodistribution: Intestine ([1]; 30 min): 0.48 ± 0.12 % dose/g | Biodistribution: Kidney ([1]; 30 min): 137.36 ± 12.92 % dose/g | Biodistribution: Liver ([1]; 30 min): 3.23 ± 0.31 % dose/g | Biodistribution: Lung ([1]; 30 min): 2.46 ± 0.37 % dose/g | Biodistribution: Muscle ([1]; 30 min): 0.51 ± 0.07 % dose/g | Biodistribution: PC3-PSMA- tumor ([1]; 30 min): 1.59 ± 0.27 % dose/g | Biodistribution: PIP-PSMA+ tumor ([1]; 30 min): 12.88 ± 2.08 % dose/g | Biodistribution: Pancreas ([1]; 30 min): 1.57 ± 0.93 % dose/g | Biodistribution: Skin ([1]; 30 min): 1.71 ± 0.22 % dose/g | Biodistribution: Spleen ([1]; 30 min): 7.19 ± 1.55 % dose/g | Biodistribution: Stomach ([1]; 30 min): 0.44 ± 0.28 % dose/g | Biodistribution: Blood ([1]; 1 hr): 0.65 ± 0.08 % dose/g | Biodistribution: Bone ([1]; 1 hr): 0.17 ± 0.01 % dose/g | Biodistribution: Brain ([1]; 1 hr): 0.03 ± 0.00 % dose/g | Biodistribution: Heart ([1]; 1 hr): 0.43 ± 0.06 % dose/g | Biodistribution: Intestine ([1]; 1 hr): 0.44 ± 0.13 % dose/g | Biodistribution: Kidney ([1]; 1 hr): 166.31 ± 18.62 % dose/g | Biodistribution: Liver ([1]; 1 hr): 2.87 ± 0.30 % dose/g | Biodistribution: Lung ([1]; 1 hr): 1.52 ± 0.28 % dose/g | Biodistribution: Muscle ([1]; 1 hr): 0.21 ± 0.05 % dose/g | Biodistribution: PC3-PSMA- tumor ([1]; 1 hr): 1.14 ± 0.25 % dose/g | Biodistribution: PIP-PSMA+ tumor ([1]; 1 hr): 13.86 ± 1.54 % dose/g | Biodistribution: Pancreas ([1]; 1 hr): 0.75 ± 0.13 % dose/g | Biodistribution: Skin ([1]; 1 hr): 0.64 ± 0.26 % dose/g | Biodistribution: Spleen ([1]; 1 hr): 4.60 ± 1.80 % dose/g | Biodistribution: Stomach ([1]; 1 hr): 0.34 ± 0.19 % dose/g | Biodistribution: Blood ([1]; 2 hr): 0.53 ± 0.11 % dose/g | Biodistribution: Bone ([1]; 2 hr): 0.19 ± 0.03 % dose/g | Biodistribution: Brain ([1]; 2 hr): 0.03 ± 0.00 % dose/g | Biodistribution: Heart ([1]; 2 hr): 0.25 ± 0.04 % dose/g | Biodistribution: Intestine ([1]; 2 hr): 0.38 ± 0.04 % dose/g | Biodistribution: Kidney ([1]; 2 hr): 116.41 ± 51.94 % dose/g | Biodistribution: Liver ([1]; 2 hr): 2.54 ± 0.16 % dose/g | Biodistribution: Lung ([1]; 2 hr): 1.05 ± 0.08 % dose/g | Biodistribution: Muscle ([1]; 2 hr): 0.14 ± 0.07 % dose/g | Biodistribution: PC3-PSMA- tumor ([1]; 2 hr): 0.74 ± 0.23 % dose/g | Biodistribution: PIP-PSMA+ tumor ([1]; 2 hr): 16.74 ± 2.75 % dose/g | Biodistribution: Pancreas ([1]; 2 hr): 0.50 ± 0.15 % dose/g | Biodistribution: Skin ([1]; 2 hr): 0.62 ± 0.31 % dose/g | Biodistribution: Spleen ([1]; 2 hr): 3.41 ± 2.46 % dose/g | Biodistribution: Stomach ([1]; 2 hr): 0.20 ± 0.09 % dose/g | Tumor uptake ([1]; suitable for PET imaging): excellent tumor uptake | Stability of injected doses [2]: stable
SMILES: O=C(O)CCC(C(=O)O)N1CCN(CC(=O)O)CCN(C(CCC(=O)NCC(=O)N[C@@H](Cc2ccc(OCC(=O)N[C@@H](Cc3ccccc3)C(=O)NCCCC[C@H](NC(=O)N[C@@H](CCC(=O)O)C(=O)O)C(=O)O)cc2)C(=O)O)C(=O)O)CCN(CC(=O)O)CC1.[68Ga] (stereo partly drawn) [[^68Ga]4]

SMILES: O=C(O)CC[C@H](NC(=O)N[C@@H](CCCCNC(=O)[C@H](Cc1ccc2ccccc2c1)NC(=O)[C@H]1CC[C@H](CNC(=O)CN2CCN(CC(=O)O)CCN(CC(=O)O)CCN(CC(=O)O)CC2)CC1)C(=O)O)C(=O)O.[177Lu] [[^177Lu]PSMA-617, reference compound]
In vitro cell uptake ([3]; PIP PC3, 5 min): 3.5 % ID per 5 × 10^5 cells | In vitro cell uptake ([3]; PIP PC3, 15 min): 5.8 % ID per 5 × 10^5 cells | In vitro cell uptake ([3]; PIP PC3, 30 min): 6.8 % ID per 5 × 10^5 cells | In vitro cell uptake ([3]; PIP PC3, 60 min): 8.2 % ID per 5 × 10^5 cells | In vitro cell uptake ([3]; PIP PC3, 60 min, with PSMA inhibitor (2-PMPA, 2 uM)): 1.0 % ID per 5 × 10^5 cells | In vitro cell uptake ([3]; PIP PC3, 120 min): 9.6 % ID per 5 × 10^5 cells | In vitro cell uptake [4]: 0.3 % ID per 5 × 10^5 cells
